Source: patent US20030095982A1, “Fraction of Cordyceps sinensis and method of isolation thereof” (priority 2001, published 2003)

What was measured:
[1] = test system: ovalbumin (OA) induced bronchial hyperresponsiveness; assay: Pulmonary function test, OA induced bronchial hyperresponsiveness in BNR; assay type: in vivo, brown Norway rats (BNR)
Description: The requirements for animal models include both specificity and the capacity for developing pulmonary histopathological lesions that are similar to those found in the corresponding human disorders. In view of the above considerations, three kinds of animal models were adopted for the experiments used in developing this invention. Two were invasive method and one was non-invasive method. The first and second invasive models were BNR and guinea pig asthma model induced by ovalbumin (OA). Twenty four either BNR (weight ranging from 250˜350 g) or guinea pig (380˜500 g) were divided into three groups. Each group consisted of 8 weight-matched male animals. Both group I and group II BNR were put into a closed chamber (30×30×16 cm plastic box) with two small holes, one serving as a gas inlet and the other as a gas outlet. Two mL of 1% OA was aerosolized by nebulizer and delivered continuously into the closed chamber with a gas delivery flow of 8 l/min. The animal was exposed to OA in the chamber for 10 minutes.
A second sensitization was performed 7 days later using the same procedure. Another 7 days later, a provocation test was performed. To prevent anaphylaxis and possible death, the animals were pretreated with pyrinamine (10 mg/kg) intraperitoneally 30 minutes before the test. For provocation, the BNR inhaled 3 mL of 4% aerosolized OA by nebulizer for 10 minutes in a closed chamber, using the same procedure as for sensitization. Group I BNR or guinea pig were given Cordyceps sinensis active fraction F-4 4 mg/kg intraperitoneally 30 minutes before OA inhalation provocation. Group II control animals were treated in the same way as […], except that they were sensitized and challenged by breathing aerosolized saline instead of OA and without Cordyceps sinensis pretreatment.
In the Cordyceps sinensis treatment study, the protocol is similar to pretreatment except F-4 is administed after OA inhalation provocation.
For the lung function and acetylcholine provocation portion of the study, all animals were anesthetized with sodium pentobarbitone (50 mg/kg intraperitoneally). Jugular vein cannulation (PE-10 polyethylene tube filled with heparin, 1000 iu/mL in normal saline) and tracheostomy were performed. Lung function test was done 24 hours after the OA provocation test. The BNRs or pignea pigs were put in a body box (Model 6 Body Box, Buxco, Troy, N.Y., USA) in a supine position while the mice were put in a body box for mice (Anesthetized Body Box for Mice, Buxco, Troy, N.Y., USA). Gallamine triethiodide (4 mg/kg) was intravenously injected to induce paralysis and inhibit spontaneous breathing. A small animal ventilator set at a tidal volume of 6 mL/kg and a respiratory rate of 60 times/minute for the BNRs, 120 times/minute for the mice was used to ventilate the small animals. All animals were stable without spontaneous breathing 5 minutes after gallamine was given. Pulmonary function tests (PET) as described below were measured at baseline. Therefore, 25, 50, 75 and 100 μg/kg of acetylcholine (Ach) were given intravenously at 30 minute intervals. PETs were done 5 seconds after each dose of acetylcholine. Before each successive dose of Ach, the flow volume loop returned to baseline.
The airway opening pressure (PaO) was measured by a Gould pressure transducer at the tracheotomy. Respiratory flow was measured by a DP-45-14 differential pressure transducer. When tidal breathing was examined, 3-layer 325-mesh wire screen was used to measure the pressure difference. When a maximal forced expiratory maneuver (MFEM) was performed, a 6-layer 325-mesh wire screen was used to measure the pressure difference.
For the MFEM, the lungs were inflated to total lung capacity 9TLC, lung volume at PaO=35 cm H2O) 3 times; the inflation was regulated by a solenoid valve. At peak volume during the third inflation, the inflation valve was shut off and another solenoid valve was opened immediately for deflation. […]

[2] = test system: ovalbumin (OA) induced bronchial hyperresponsiveness; assay: Bronchoalveolar lavage cell counts, OA model in BNR; assay type: in vivo, brown Norway rats (BNR)
Description: After completion of the pulmonary function tests, BAL was performed using 10 mL normal saline twice (total 20 mL) for BNR or guinea pig. The BAL fluid was collected into plastic flasks containig 1,500 units of heparin and then strained through 1 layer of surgical gauze and centrifuged at 500 g for 5 min. The cell pellet was washed 3 times with sterile saline solution and resuspended in RPMI-1640. A small portion was taken for evaluation of cell number and viability, as assessed by trypan blue exclusion.
Differential counts were obtained using a cytocentrifuge preparation (Cytospin; Shandon Southern Instruments, Sewickley, Pa.) stained with Liu's stain (modified May-Giemsa stain).

Ames test = assay type: cell-based
Description: B: Compound F8: This refers to F8 (for spectroscopic and structural data, see FIG. 2a, 2b, and 3). The molecular formula of compound F8 is C28H46O3. To confirm the potential applicability of the above fractions and to check for obvious toxicity or mutagenicity, Ames test and acute toxicity test were conducted on white mice (ICR-mice) using the F4 fraction or compound F8.

[3] = baseline, 4 mg/Kg intraperitoneally 30 minutes before OA inhalation provocation, mean±SD
[4] = pretreated before OA inhalation provocation (group I) vs OA-treated (group II), Ach doses higher than 25 μg/kg
[5] = BAL fluid, 4 mg/Kg intraperitoneally 30 minutes before OA inhalation provocation

CC(C)[C@@H](C)C=C[C@@H](C)[C@H]1CC[C@H]2C3=C[C@@H](O)[C@@]4(O)C[C@@H](O)CC[C@]4(C)[C@H]3CC[C@]12C [F8, (24R)-ergosta-7,22-diene-3β, 5α, 6β,-triol]
Cdyn (total dynamic lung compliance) [1, 3]: 0.53 ± 0.05 mL/cm H2O
MFEF 25% [1, 3]: 35.3 ± 4.5 mL/s
MFEF 50% [1, 3]: 75.7 ± 4.6 mL/s
MFEF 75% [1, 3]: 101.5 ± 4.9 mL/s
PaO (airway opening pressure at tidal breathing) [1, 3]: 4.3 ± 0.6 cmH2O
Peak flow [1, 3]: 105.6 ± 4.7 mL/s
Total lung capacity [1, 3]: 15.4 ± 1.5 mL
percentage of baseline MFEF 25% TLC, Ach dose response [1, 4]: group II was significantly lower then group I
percentage of baseline MFEF 50% TLC, Ach dose response [1, 4]: group II was significantly lower then group I
PD20 Ach (dose of Ach producing a 20% drop) for MFEF 50% and MFEF 25% ([1]; treatment study (administered after OA inhalation provocation), group I vs OA-treated group II): significantly (p<0.001) lower in group II than in the other 2 groups
Eosinophil Cell count [2, 5]: 4.26 ± 0.5 (×10^4)/mL
Eosinophil Percentage of total cell count (%) [2, 5]: 28.8 ± 4.5 %
Lymphocyte Cell count [2, 5]: 3.37 ± 0.51 (×10^4)/mL
Lymphocyte Percentage of total cell count (%) [2, 5]: 22.8 ± 4.5 %
Macrophage Cell count [2, 5]: 6.85 ± 0.64 (×10^4)/mL
Macrophage Percentage of total cell count (%) [2, 5]: 46.3 ± 5.5 %
Neutrophil Cell count [2, 5]: 0.31 ± 0.4 (×10^4)/mL
Neutrophil Percentage of total cell count (%) [2, 5]: 2.1 ± 0.5%
Total cell count [2, 5]: 14.8 ± 3.2 (×10^4)/mL
BAL total cell counts, eosinophils and lymphocytes versus group II ([2]; treatment study (administered after OA inhalation provocation)): Group II had higher total cell counts than the other 2 groups
mutagenicity (Ames test) (Ames test): no obvious evidence of toxicity or mutagenic properties
